# Read-outs that look alike come from different tables or passages of the source.
# Key:
# [1] = in vitro; details: human
# Description: Percent inhibition of viral replication was calculated by comparing the p24 and RT activity values from the test substance-treated infected cells with those from untreated infected cells. In parallel, the cytotoxicity of the compounds was examined using a microculture tetrazolium assay (MTA) of cell proliferation, as described.in the Zarling, Enrice, and Uckun articles Supra).
# Cellular Assays of Anti-HIV Activity and Cytotoxicity. […] Percent viral inhibition was calculated by comparing the RT activity values from the test substance-treated infected cells with RT values from untreated infected cells (i.e., virus controls).
# [2] = test system: HIV-1 HTLVIIIB; experiment: microbe, parasite or virus in culture
# Outline: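 PHA- and IL-2-stimulated human PBMC from HIV-negative donors were infected with HIV-1 (MOI 0.001–0.1, 1 h, 37 °C) and cultured with compound (0.0001–100 μM). Supernatant p24 was measured by EIA on day 6 or 7; percent inhibition was calculated against untreated infected controls and IC50 was derived from it.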
# [3] = test system: HIV-1 RT-MDR (NRTI-resistant, NNRTI-resistant); experiment: p24 antigen assay, RT-MDR strain; assay type: cell-based
# [4] = Human immunodeficiency virus 1, PBMC
# [5] = Human immunodeficiency virus 1, PBMC, in Homo sapiens, read-out: IC50, compound 1c compared to zidovudine
# [6] = Human immunodeficiency virus 1, PBMC, in Homo sapiens, read-out: IC90, compound 1c compared to zidovudine
# [7] = Human immunodeficiency virus 1, read-out: IC50 HTLVIIIB
# [8] = Human immunodeficiency virus 1, RT-MDR(Con) control strain (M41L, L74V, T215Y, V106N)
# [9] = Human immunodeficiency virus 1, read-out: IC50 RTMDR, p24
# [10] = Human immunodeficiency virus 1, MT2, laboratory strain RT-MDR (V106N), MT-2 cells, Table 14
SMILES,IC50 ([1]; CEM IC50 [MTA]) [nM],SI(CC50/IC50) [2],"IC50 [2, 4] [nM]","IC90 [2, 4] [nM]","IC50 [2, 5] [nM]","IC90 [2, 6] [nM]","IC50 [2, 7] [nM]","IC50 [3, 8] [nM]","IC50 [3, 9] [nM]","SI(CC50/IC50) ([2]; HTLVIIIB, PBMC)","IC50 [3, 10] [nM]",IC50 ([1]; IC50 [MTA]) [nM],IC50 [1] [nM],"IC50 ([3]; read-out: IC50 RTMDR, p24) [nM]"
"Cc1cn([C@H]2C[C@H](N=[N+]=[N-])[C@@H](CO)O2)c(=O)[nH]c1=O [AZT, 3′-azido-3′-deoxythymidine]",> 10000,"31,867",3 ± 1,93 ± 34,3 ± 1,93 ± 34,4 ± 1,> 10000,68,,,,,
Cc1ccnc2c1NC(=O)c1cccnc1N2C1CC1 [nevirapine],,,24 ± 7,1100 ± 478,,,,,,213,18000 ± 8000,,,
"Cc1cn([C@H]2C=C[C@@H](CO)O2)c(=O)[nH]c1=O [d4T, 2′,3′-didehydro-2′,3′-dideoxythymidine]",,196,23 ± 8,1470 ± 614,,,18,,,,,> 10000,,
"COC(=O)C(C)NP(=O)(OC[C@@H]1C=C[C@H](n2cc(C)c(=O)[nH]c2=O)O1)Oc1ccc(Br)cc1 (stereo partly shown) [Compound 1c, d4T-5′-[p-bromo-phenylmethoxyalaninyl phosphate]]",,,1,52 ± 24,1,45 ± 28,1,< 1,20 to 60,,< 1,,> 10000,21 ± 12
